# Laboratory results taken from patent publication US11154589B2, “Antimicrobial composition combinations comprising star shaped peptide polymers” (The University of Melbourne, priority 2016, dated 2021).
# Read-outs that look alike come from different tables or passages of the source. Marks after values point to notes of the source that are not given here.
# What was measured:
# [1] = system: Acinetobacter baumannii (A. baumannii, ATCC 19606); assay: MBC determination (in vitro antimicrobial experiment, CFU counting); format: cell-based; settings: compound alone, A. baumannii (wild-type)
# Description: (§1) Freeze-dried cultures of Escherichia coli (E. coli, ATCC 25922), Klebsiella pneumoniae (K. pneumoniae, ATCC 13883), Pseudomonas aeruginosa (P. aeruginosa, ATCC 47085), Acinetobacter baumannii (A. baumannii, ATCC 19606), colistin and multidrug-resistant (CMDR) A. baumannii (FADDI-AB156), and CMDR P. aeruginosa (FADDI-PA067) were grown aerobically and maintained by passage at ambient temperature on horse blood agar (10% v/v defibrinated horse blood, 4.4% w/v Oxoid Blood Agar Base No. 2). Overnight cultures were made from transferring a colony (ca. half a loop) from the agar plates to culture tubes containing sterilized Luria-Bertani broth (LB, 1% w/v Bacto™ Tryptone, 1% w/v NaCl, 0.5% w/v Oxoid Yeast Extract) (20 mL). Bacterial cultures were incubated overnight at 37° C. with aeration and without agitation, with the exception of the two P. aeruginosa strains (ATCC 47085 and FADDI-PA067) which were cultured at 37° C. with aeration and agitation (150 rpm). On the next day, for E. coli, K. pneumonia, P. aeruginosa (ATCC 47085), and CMDR P. aeruginosa (FADDI-PA067), small aliquots (i.e., 0.5-3 mL) were taken from the culture tubes, further diluted with LB (20 mL), and incubated for 3-4 h at 37° C. with aeration before use. All bacterial cultures were cultured without agitation, with the exception of P. aeruginosa ATCC 47085 and FADDI-PA067 which were cultured with shaking at 150 rpm. For A. baumannii, an aliquot of 0.5 mL was taken from the overnight culture tube, further diluted with LB (200 mL), and incubated overnight at 37° C. with aeration before use.
# (§2) The 96-well plate was then incubated at 37° C. for 1.5 or 3 h. For each well, microbial solution was diluted with saline (0.9% NaCl solution) using an appropriate dilution factor and placed on a LB agar plate (LB broth containing 15 g/L Oxoid Blood Agar Base No. 2). For E. coli, K. pneumoniae, and A. Baumannii (ATCC 19606 and FADDI-AB156), the agar plates were incubated overnight at room temperature, and then at 37° C. with aeration for 2 h. For P. Aeruginosa (ATCC 47085 and FADDI-PA067), the agar plates were incubated at 37° C. with aeration. The number of colony-forming units (CFU) was counted and expressed as CFU/mL. Positive controls consisting of cells without any treatment were used. […] A minimum of two independent experiments (biological replicates) of the assay were conducted and three technical replicates were used in each experiment. Data is expressed as mean±standard deviation (SD) and analysed using student's t-test.
# [2] = system: Escherichia coli (E. coli, ATCC 25922); assay: as above; format: cell-based
# Description: as §1, §2
# [3] = system: Klebsiella pneumoniae (K. pneumoniae, ATCC 13883); assay: as above; format: cell-based
# Description: as §1, §2
# [4] = system: Pseudomonas aeruginosa (P. aeruginosa, ATCC 47085); assay: as above; format: cell-based; settings: compound alone, P. aeruginosa (wild-type)
# Description: as §1, §2
# [5] = system: CMDR P. aeruginosa (FADDI-PA067); assay: as above; format: cell-based, Pseudomonas aeruginosa; settings: compound alone
# Description: as §1, §2
# [6] = system: CMDR A. baumannii (FADDI-AB156); assay: as above; format: cell-based, Acinetobacter baumannii; settings: compound alone
# Description: as §1, §2
# [7] = system: Acinetobacter baumannii (A. baumannii, ATCC 19606); assay: S16-antibiotic co-administration, synergy by Bliss Independence and HSA models; format: cell-based; settings: for Interaction with S16 as evaluated by the Bliss Independence and HSA models (in words) / Antimicrobial activity on co-administration with S16 compared to compounds alone (log change in CFU/mL): A. baumannii wild-type; for Interaction with S16 as evaluated by the Bliss Independence and HSA models (in words): 3 h time point; for Antimicrobial activity on co-administration with S16 compared to compounds alone (log change in CFU/mL): all compounds at MBC50, t=3 h; for MBC in combination / Synergistic? (Yes/No) Bliss* / Synergistic? (Yes/No) HAS*: A. baumannii, 3 h; for MBC in combination: S16 and antibiotic co-administered, each at MBC50; for Synergistic? (Yes/No) Bliss* / Synergistic? (Yes/No) HAS*: antibiotic in combination with S16; for Synergistic? (Yes/No) Bliss*: Bliss Independence model; for Synergistic? (Yes/No) HAS*: Highest Single Agent model
# Description: as §2
# (§3) The Bliss Independence and HSA models were used to calculate drug synergism. […] Biotechnol. 31, 160-165 (2013). With the Bliss Independence model, synergism was calculated using the formula, BICAB=A+B−AB (1), where A and B are the effects of the two drugs in isolation and BICAB is the combined effect of the two drugs as predicted by the Bliss Independence model. […] In the HSA model, if CAB is greater than the greater of A and B, CAB>max(A, B), synergy is observed. The quantitative effect of the compounds when administered alone (i.e., A and B) or in combination (i.e., CAB) was defined as the fractional reduction of the population, R=1−CFUt/CFU0, where CFUt is the CFU/mL measured after treatment, and CFU0 is the CFU/mL measured before treatment.
# [8] = system: Escherichia coli (E. coli, ATCC 25922); assay: as above; format: cell-based; settings: for MBC in combination: S16 and antibiotic co-administered, each at MBC50, 3 h; for Antimicrobial activity on co-administration with S16 compared to compounds alone (log change in CFU/mL): all compounds at MBC50, t=3 h; for Synergistic? (Yes/No) Bliss* / Synergistic? (Yes/No) HAS*: antibiotic in combination with S16, 3 h; for Synergistic? (Yes/No) Bliss*: Bliss Independence model; for Synergistic? (Yes/No) HAS*: Highest Single Agent model
# Description: as §2, §3
# [9] = system: Klebsiella pneumoniae (K. pneumoniae, ATCC 13883); assay: as above; format: cell-based; settings: for MBC in combination: S16 and antibiotic co-administered, each at MBC50, 3 h; for Antimicrobial activity on co-administration with S16 compared to compounds alone (log change in CFU/mL): all compounds at MBC50, t=3 h; for Synergistic? (Yes/No) Bliss* / Synergistic? (Yes/No) HAS*: antibiotic in combination with S16, 3 h; for Synergistic? (Yes/No) Bliss*: Bliss Independence model; for Synergistic? (Yes/No) HAS*: Highest Single Agent model
# Description: as §2, §3
# [10] = system: Pseudomonas aeruginosa (P. aeruginosa, ATCC 47085); assay: as above; format: cell-based; settings: for Antimicrobial activity on co-administration with S16 compared to compounds alone (log change in CFU/mL): all compounds at MBC50; for Fold reduction of MBC: MBCeff with S16 versus MBC alone; for MBC in combination: S16 and antibiotic co-administered, each at MBC50; for Synergistic? (Yes/No) Bliss* / Synergistic? (Yes/No) HAS*: antibiotic in combination with S16; for Synergistic? (Yes/No) Bliss*: Bliss Independence model; for Synergistic? (Yes/No) HAS*: Highest Single Agent model
# Description: as §2, §3
# [11] = system: CMDR A. baumannii (FADDI-AB156); assay: as above; format: cell-based, Acinetobacter baumannii
# Description: as §2, §3
# [12] = system: CMDR A. baumannii (FADDI-AB156); assay: Antibiogram of CMDR A. baumannii (MIC); format: cell-based, Acinetobacter baumannii; settings: CMDR A. baumannii (FADDI-AB156); for MIC: read-out: MIC; for Susceptibility: interpreted by CLSI resistant breakpoints
# [13] = system: CMDR P. aeruginosa (FADDI-PA067); assay: Antibiogram of CMDR P. aeruginosa; format: cell-based, Pseudomonas aeruginosa; settings: interpreted by CLSI resistant breakpoints
Molecule,MBC [4] [mM],MBC [5] [µM],Interaction with S16 as evaluated by the Bliss Independence and HSA models (in words) [7],Antimicrobial activity on co-administration with S16 compared to compounds alone (log change in CFU/mL) [7],MBC in combination [7] [µM],Synergistic? (Yes/No) Bliss* [7],Synergistic? (Yes/No) HAS* [7],MBC in combination [8] [µM],Antimicrobial activity on co-administration with S16 compared to compounds alone (log change in CFU/mL) [8],Synergistic? (Yes/No) Bliss* [8],Synergistic? (Yes/No) HAS* [8],MBC in combination [9] [µM],Antimicrobial activity on co-administration with S16 compared to compounds alone (log change in CFU/mL) [9],Synergistic? (Yes/No) Bliss* [9],Synergistic? (Yes/No) HAS* [9],"Antimicrobial activity on co-administration with S16 compared to compounds alone (log change in CFU/mL) ([10]; P. aeruginosa wild-type, t=3 h)","MBC in combination ([10]; P. aeruginosa, 3 h) [µM]","Synergistic? (Yes/No) Bliss* ([10]; P. aeruginosa, 3 h)","Synergistic? (Yes/No) HAS* ([10]; P. aeruginosa, 3 h)",Susceptibility [12],also measured
"CC1(C)S[C@@H]2[C@H](NC(=O)[C@H](N)c3ccccc3)C(=O)N2[C@H]1C(=O)O [Amp, ampicillin]",>5.86,<1.4,additive,significantly enhanced antimicrobial activity,1465.4,No,No,5.7,significantly enhanced antimicrobial activity,No,No,327.6,significantly enhanced antimicrobial activity,Yes,Yes,significantly enhanced antimicrobial activity,2930.7,Yes,Yes,Resistant,"MBC ([1]; Acinetobacter baumannii, ATCC19606): > 2930 µM; MBC ([2]; Escherichia coli, ATCC25922, compound alone): 9.4 µM; MBC ([3]; Klebsiella pneumoniae, ATCC13883, compound alone): 655 µM; MBC ([4]; Pseudomonas aeruginosa, ATCC47085): > 5.86 mM; MBC ([5]; Pseudomonas aeruginosa): < 1.4 µM; MBC ([6]; Acinetobacter baumannii): > 2930 µM; Interaction with S16 as evaluated by the Bliss Independence and HSA models (in words) ([8]; 3 h time point): additive; Interaction with S16 as evaluated by the Bliss Independence and HSA models (in words) ([9]; 3 h time point): synergistic; Interaction with S16 as evaluated by the Bliss Independence and HSA models (in words) ([10]; P. aeruginosa wild-type, 3 h time point): synergistic; Fold reduction of MBC ([10]; P. aeruginosa): > 16 fold; Fold reduction of MBC ([10]; P. aeruginosa, listed as ampicillin): more than 16 fold; reduction (printed in parentheses beside fold reduction of MBC) ([10]; P. aeruginosa, antibiotic co-administered with S16): 99.9%; MBC in combination, MBCeff ([10]; P. aeruginosa, co-administered S16 (at MBC50) and antibiotic, antibiotic concentration giving at least 2-log reduction in CFU/mL, 3 h): 366.3^a μM; Interaction with S16 as evaluated by the Bliss Independence and HSA models (in words) ([11]; 3 h time point): synergistic; MBC in combination ([11]; S16 and antibiotic co-administered, each at MBC50, 3 h): 2930.7 µM; Antimicrobial activity on co-administration with S16 compared to compounds alone (log change in CFU/mL) ([11]; all compounds at MBC50, t=3 h): Enhanced antimicrobial activity; Synergistic? (Yes/No) Bliss* ([11]; antibiotic in combination with S16, 3 h, Bliss Independence model): Yes; Synergistic? (Yes/No) HAS* ([11]; antibiotic in combination with S16, 3 h, Highest Single Agent model): Yes; MIC ([12]; Acinetobacter baumannii): > 2930 µM"
gentamicin,0.0024,<1.1,non-synergistic,did not result in any significant change in activity,6.0,Yes,No,2.2,enhanced efficacy,Yes,Yes,1.1,enhanced efficacy,Yes,Yes,did not result in any significant change in activity,1.2,No,No,Resistant,"MBC [1]: 12.1 µM; MBC ([2]; compound alone): 3.7 µM; MBC ([3]; compound alone): 2.2 µM; MBC [6]: >1104.5 µM; Antimicrobial activity on co-administration with S16 compared to compounds alone (log change in CFU/mL) ([10]; P. aeruginosa, t=1.5 h): enhancement in efficacy; Susceptibility [13]: Resistant; MIC [12]: >1104.5 µM"
